Measurements: patent publication US20230070582A1, “UTILIZATION OF FGF ACTIVATORS IN CULTURE MEDIA” (Yissum Research Development Company of the Hebrew …, priority 2020, published 2023)

Legend:
[1] = tested on: Bovine fibroblasts adapted to suspension culture; test: Bovine fibroblast cell growth in serum-free suspension culture, cell count on Day 3; type: cell-based; settings: Day 3 count, FIG. 1
Procedure: Effects of ID-8 and/or FK-506 (alone or combined) on bovine fibroblast cell growth were evaluated. Bovine fibroblasts adapted to suspension culture were seeded in 0.3 millions/ml in a total volume of 20 ml in cell culture flasks. The flasks were kept in a shaker incubator with 100 rpm, 37° C., and 5% CO2. Cell counts were done on Day 3 using automatic cell counter (Cellaca®) with APOI staining to eliminate the dead cells from the counts.

ovine fibroblasts = test: XTT cell proliferation assay, ovine fibroblasts 2D culture, gradient concentrations; type: cell-based; settings: FIG. 3
Procedure: The effects of gradient concentration of both small molecules (ID-8 and FK-506) in ranges from about 1-50 μM for ID-8 and about 1-50 nM for FK-506 were tested on ovine fibroblasts 2D culture. Ovine fibroblasts were seeded in 96-well plate at a density of 1000 cells/well. ID-8 and FK-506 in serum free medium were incubated with the fibroblast cells for 48 hours before adding XTT (cell proliferation assay from Biological Industries, Israel) according to company protocol. Colorimetric signal was measured after 8 hours of XTT addition. Blank (medium only) measurements were subtracted from the sample measurements (n=4).

mouse ESCs = settings: serum-free culture; Miyabayashi et al. 2008; cited from earlier work
FGF pathway = settings: by activating ERK pathway; zebrafish heart model; Molina et al. 2009; cited from earlier work

## COc1ccc(-n2c(C)c([N+](=O)[O-])c3ccc(O)cc32)cc1 [ID-8]
[1]; ID-8 alone 1 μM
  effect on bovine fibroblast cell growth as compared to FGF (10 ng/ml): comparable effect
Ovine fibroblasts; higher concentrations of ID-8, e.g. 10 μM or 50 μM
  ovine fibroblast cell growth versus control (no FGF): more cell growth than the control
Ovine fibroblasts; in combination with FK-506, 48 hours
  concentration of ID-8 giving the best cell growth (optimal concentration): 1 to 5 µM
Mouse ESCs
  self-renewal of mouse ESCs: support self-renewal

## C=CC[C@@H]1/C=C(\C)C[C@H](C)C[C@H](OC)[C@H]2O[C@@](O)(C(=O)C(=O)N3CCCC[C@H]3C(=O)O[C@H](/C(C)=C/[C@@H]3CC[C@@H](O)[C@H](OC)C3)[C@H](C)[C@@H](O)CC1=O)[C@H](C)C[C@@H]2OC [FK-506, Tacrolimus]
[1]; FK-506 alone 2 nM
  effect on bovine fibroblast cell growth as compared to FGF (10 ng/ml): didn't obtain a comparable effect
Ovine fibroblasts; higher concentration of FK-506, e.g. 5 nM, 20 nM or 50 nM, with ID-8 at 1 μM
  effect on ovine fibroblast cell growth: did not show significant effect on cell growth
Ovine fibroblasts; in combination with ID-8, 48 hours
  concentration of FK-506 giving the best cell growth (optimal concentration): 1 to 2 nM

## Cl.O=C1/C(=C/c2ccccc2)C(NC2CCCCC2)c2ccccc21 (mixture of isomers) [(E/Z)-BCI hydrochloride]
FGF pathway
  effect on FGF pathway: hyperactivates FGF pathway
